The record followed here is ChEMBL document CHEMBL1201862, “PubChem BioAssay data set” (2004).

The target in experiment [1] is NAD-dependent protein deacylase sirtuin-5, mitochondrial (Homo sapiens, UniProt Q9NXA8). Nature of the experiment: sirtuin-5 deacylation blockers, concentration series – biochemical, fluorescence imaging, cherry-pick, set 5, dose response (AID 720591).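 Also: desuccinylation of succinyl peptide AMC substrate read as fluorescence after trypsin release; potency of inhibitors that lower fluorescence and may act on trypsin instead.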
For experiment [2], the system named is Escherichia coli. Nature of the experiment: microbe, parasite or virus in culture.
Experiment [3] has as its system Escherichia coli. Description: microbe, parasite or virus in culture. This is another data set of the same source.
The target in a further experiment is Paired box protein Pax-8 (Homo sapiens, UniProt Q06710). Nature of the experiment: PAX8 transcriptional activity inhibition in RMG-I – RMG-I cells, luciferase, cherry-pick, dose response (AID 687027).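 Also: luciferase reporter driven by Pax8 target thyroperoxidase promoter measured by SteadyGlo luminescence.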 It is filed as functional, cell-based.
Experiment [4] in a line: IGROV1 cell killing – plate reader, dry powder samples, PAX8 inhibitor project, dose response (AID 743043). The experiment is classed as functional, cell-based. To be noted: IGROV-1.
The nature of experiment [5]: OVCAR8 cell viability loss – plate reader, dry powder samples, PAX8 project, dose response (AID 743197). The experiment is classed as functional, cell-based. To be noted: OVCAR-8.
A short description of experiment [6]: OVCAR-3 cell viability loss – plate reader, dry powder samples, PAX8 inhibitor project, dose response (AID 743044). It is filed as functional, cell-based.
Experiment [7] can be described thus: viability loss in human Jurkat cells – cell-based, luminescence, cytotoxicity control for P. falciparum gametocyte viability project, dose response (AID 1117277).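 Also: potency reflects loss of cellular ATP meaning fewer viable cells.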 It is filed as functional.
Experiment [8] is described as follows: viability inhibitors of stage V gametocytes – luminescence, dose response (AID 1117278).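 Also: gametocytes exposed to compound for 24 hours.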 The experiment is classed as functional, cell-based.
The nature of experiment [9]: viability loss in MITF-independent A375 cells – cell-based, CellTiter-Glo luminescence, dry powder, set 7, counter-screen for MITF inhibitor project, dose response (AID 624490). It is filed as functional. As to conditions: A-375.
The nature of experiment [10]: growth inhibition of MALME3 cells – cell-based, CellTiter-Glo luminescence, dry powder, set 5, orthogonal assay for MITF inhibitor project, dose response (AID 651584). The experiment is classed as functional. To be noted: MALME-3. For orientation: In ATP-based viability assays light output follows the ATP content of the culture.
The nature of experiment [11]: cytotoxicity in MITF-independent A375 cells – cell-based, CellTiter-Glo luminescence, dry powder, set 4, counter-screen for MITF inhibitor project, dose response (AID 624364).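 Also: A375 melanoma cells are MITF independent so this is a counter screen.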 The experiment is classed as functional. To be noted: A-375.
Experiment [12] in a line: MITF Orthogonal Assay: SK-MEL-5 CTG Assay Measured in Cell-Based System Using Plate Reader - 2084-02_Inhibitor_Dose_DryPowder_Activity_Set5. It is filed as functional.
A short description of experiment [13]: viability loss in MITF-independent A375 cells – cell-based, CellTiter-Glo luminescence, dry powder, set 6, counter-screen for MITF inhibitor project, dose response (AID 624488). To be noted: A-375. The experiment is classed as functional.
Experiment [14] is described as follows: cytotoxicity in melanoma parental cells – cell-based, CellTiter-Glo, dry powder, set 6, MITF inhibitor project, dose response (AID 624429). It is filed as functional. To be noted: SK-MEL-5.
The nature of experiment [15]: MITF Measured in Cell-Based System Using Plate Reader - 2084-01_Inhibitor_Dose_DryPowder_Activity_Set7. It is filed as functional.
The nature of experiment [16]: MITF Measured in Cell-Based System Using Plate Reader - 2084-01_Inhibitor_Dose_DryPowder_Activity_Set6. The experiment is classed as functional.
Experiment [17] can be described thus: melanocyte viability loss, MITF-dependent cells, cell-based, plate reader, dry powder, cytotoxicity control, dose response (AID 651920). It is filed as functional.
The nature of experiment [18]: growth inhibition of SK-MEL-5 melanoma cells – cell-based, CellTiter-Glo luminescence, dry powder, set 8, orthogonal assay for MITF inhibitor project, dose response (AID 651586). The experiment is classed as functional.
Experiment [19] is described as follows: MITF Orthogonal Assay: MALME3 CTG Assay Measured in Cell-Based System Using Plate Reader - 2084-04_Inhibitor_Dose_DryPowder_Activity_Set6. To be noted: MALME-3. It is filed as functional.
The nature of experiment [20]: cytotoxicity in MITF-independent A375 cells – cell-based, CellTiter-Glo luminescence, dry powder, set 9, counter-screen for MITF modulator project, dose response (AID 651591). The experiment is classed as functional. As to conditions: A-375.
A short description of experiment [21]: inhibitors of TRPM1-promoter reporter in SK-MEL-5 – cell-based, luciferase, dry powder, set 9, MITF inhibitor project, dose response (AID 651588). It is filed as functional.
The nature of experiment [22]: toxicity to human hepatoma HepG2 cells – cell-based, cherry-picked samples, cytotoxicity control, dose response (AID 1159577). The experiment is classed as functional.
Experiment [23] in a line: P. falciparum Dd2 growth inhibitors, dose response, SYBR Green, cherry-picked samples (AID 1159567). It is filed as functional, cell-based.

Structures are written as SMILES. Active and inactive are the calls of the source. Where only a bound is given, the exact number is not on record here.

Chain of Paired box protein Pax-8 (Q06710 whole entry): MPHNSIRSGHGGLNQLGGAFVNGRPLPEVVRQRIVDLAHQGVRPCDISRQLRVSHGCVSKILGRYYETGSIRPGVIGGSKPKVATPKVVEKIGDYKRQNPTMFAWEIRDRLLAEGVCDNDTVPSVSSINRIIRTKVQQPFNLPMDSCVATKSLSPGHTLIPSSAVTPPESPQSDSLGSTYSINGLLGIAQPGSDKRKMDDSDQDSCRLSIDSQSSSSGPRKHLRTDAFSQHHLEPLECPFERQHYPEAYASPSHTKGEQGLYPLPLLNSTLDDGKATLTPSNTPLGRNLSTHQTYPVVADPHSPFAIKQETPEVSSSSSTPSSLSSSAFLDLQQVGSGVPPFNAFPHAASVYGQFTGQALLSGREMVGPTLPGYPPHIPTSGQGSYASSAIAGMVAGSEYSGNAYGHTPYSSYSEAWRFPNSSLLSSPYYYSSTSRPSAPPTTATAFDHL
Chain of NAD-dependent protein deacylase sirtuin-5, mitochondrial (Q9NXA8 whole entry): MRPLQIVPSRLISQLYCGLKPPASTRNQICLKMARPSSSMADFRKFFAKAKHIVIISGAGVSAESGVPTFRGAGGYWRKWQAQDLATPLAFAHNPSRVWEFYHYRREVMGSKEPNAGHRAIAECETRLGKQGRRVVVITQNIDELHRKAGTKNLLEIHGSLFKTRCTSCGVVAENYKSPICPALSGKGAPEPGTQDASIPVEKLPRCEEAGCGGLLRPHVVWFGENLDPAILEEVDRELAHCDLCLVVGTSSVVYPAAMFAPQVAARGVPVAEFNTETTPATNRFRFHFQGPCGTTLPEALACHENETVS

For `Nc1ccccc1SCc1cn2ccccc2n1`, the values for the AC50 (in experiment [1]; in the experiment with Escherichia coli [2]; in the experiment with Escherichia coli [3]) were 20.6 µM (active), 19.9 µM (active) and 7.26 µM (active), respectively.
On to `COc1ccccc1N1CCN(C(C)C(=O)N2CC(C)OC(C)C2)CC1` (configuration not stated), for which, in experiment [1], the AC50 was > 30 µM (inactive).
With `C[C@H]1CCCCO[C@H](CN(C)Cc2ccc(Cl)c(Cl)c2)[C@@H](C)CN([C@@H](C)CO)C(=O)c2cc(NC(=O)Nc3ccc(C(F)(F)F)cc3)ccc2O1`, the concentration at half-maximal activity (AC50) was 9.26 µM (active) on Paired box protein Pax-8, 59 µM (active) in experiment [4], 50.7 µM (active) in experiment [5] and 23.4 µM (active) in experiment [6].
`CC(C)c1nc2oc3c(O)ncnc3c2c2c1CCC2`: the IC50 is > 83.3 µM (inactive) in [7] and > 109 µM (inactive) in experiment [8].
Taken in the same sequence, the figures for `COc1ccc(-c2[nH]ncc2-c2csc(C)n2)c(O)c1` were > 83.3 µM (inactive) and > 109 µM (inactive).
`O=C1C(NS(=O)(=O)c2cccs2)=C(c2ccccc2)C(=O)c2ccccc21`: the AC50 in experiment [9] was > 70 µM (inactive); in experiment [10] it was > 70 µM (inactive); in experiment [11] it was > 70 µM (inactive); in experiment [12], 65.9 µM (active); in experiment [13] it was > 70 µM (inactive); in experiment [14], > 70 µM (inactive). Besides, the AC50 is 39.1 µM (active) in experiment [15]; 45.7 µM (active) in [16]; > 70 µM (inactive) in experiment [17]; > 70 µM (inactive) in experiment [18]; > 70 µM (inactive) in experiment [19]; > 70 µM (inactive) in [20]. The AC50 in [21] was > 70 µM (inactive).
Regarding `C/C=C/c1ccc([C@@H]2[C@@H]3CN(Cc4ccc5c(c4)OCO5)C[C@H]2N3)cc1`, the AC50 in [22] was 11.8 µM (active); in experiment [23], 4.09 µM (active).
Taken in the same sequence, the figures for `CO[C@H]1CN(C)C(=O)c2cc(NC(=O)c3ccc(Oc4ccccc4)cc3)ccc2OC[C@@H](C)NC[C@@H]1C` were > 39 µM (inactive) and 6.05 µM (active).
As to `C[C@@H]1CCCCO[C@H](CN(C)Cc2ccc(Cl)c(Cl)c2)[C@@H](C)CN([C@@H](C)CO)C(=O)c2cc(NC(=O)Nc3ccc(C(F)(F)F)cc3)ccc2O1`, the AC50 on Paired box protein Pax-8 is 4.2 µM (active); in experiment [5], > 70 µM (inactive); in experiment [6], 40 µM (active).

A word on the AC50: it is the midpoint of the concentration-response curve, whichever way the signal moves. As a reminder, the IC50 is the concentration that inhibits the measured activity by half.
